Results as given in US20130225627A1, “DEXTROMETHORPHAN ANTITUSSIVE COMPOSITIONS” (Trinity Laboratories, Inc., priority 2010, published 2013).
Where a name gives a salt, the structure may show the parent alone. Read-outs that look alike come from different tables or passages of the source.

What was measured:
rats [1] = test system: rats
[2] = in vivo; cited from earlier work
females = conditions: cited from earlier work; for mean plasma bromide concentration at the end of the treatment: three menstrual cycles
[3] = rats, cited from earlier work
[4] = after oral ingestion; cited from earlier work
rats [5] = conditions: cited from earlier work
[6] = Ames test; cited from earlier work
[7] = cited from earlier work
[8] = Solubility of dextromethorphan hydrochloride in water; conditions: at the pH of the compositions of the present invention
Description: However, the compositions of the invention may contain sufficient levels of one or more cosolvents. Preferred cosolvents for this purpose include ethanol, propylene glycol, polyethylene glycol, glycerin, and sorbitol; more preferred cosolvents include ethanol, propylene glycol and glycerin.

thyroid gland = conditions: rats, diets containing 4800 or 19200 ppm NaBr; as soon as 3 days, constant during 12 weeks; cited from earlier work
healthy volunteers = conditions: cited from earlier work
rats [9] = conditions: cited from earlier work; remark: listed apart in the source

Question: Which “No Observable Adverse Effect Level (NOAEL), effects on the thyroid” value (“No Observable Adverse Effect Level” below) (rats [1]; equivalent daily dose) does the source give for `Br` [Bromide] here?
Answer: The value was 12 mg bromide/kg/day.

Question: And the “No Observable Adverse Effect Level” value (rats [1]; expressed as bromide)?
Answer: Its value is 240 ppm.

Question: And the half life [2]?
Answer: Its half life is 9 to 12 days.

Question: What about the “mean plasma bromide concentration at the end of the treatment” value (females; 4 mg Br/kg/day) of the same compound?
Answer: Its value is 3.22 mmol/L.

Question: And the “mean plasma bromide concentration at the end of the treatment” value (females; 9 mg Br/kg/day)?
Answer: Its value is 7.99 mmol/L.

Question: What about the “quantitative analysis of the electroencephalogram (EEG)” value (females; 9 mg Br/kg/day) of the same compound?
Answer: Its value is “only a marginal effect”.

Question: And the “clinical observation: effects on the thyroid or on the central nervous system” value (females; 4 and 9 mg Br/kg/day)?
Answer: Its value is “did not show effects”.

Question: What about the “serum thyroxine, free thyroxine, triiodothyronine, thyrotropin and thyroxine-binding globulin” value (females; 4 and 9 mg Br/kg/day) of the same compound?
Answer: Its value is “In none of the three groups were significant changes observed”.

Question: What about the half-life ([3]; chloride-free diet) of the same compound?
Answer: Its half-life is 25 days.

Question: What about the half-life ([3]; normal) of the same compound?
Answer: The half-life was “three”.

Question: And the “absorption in the gastrointestinal tract” value [4]?
Answer: Its value is “rapidly and completely absorbed”.

Question: And the “central nervous system effects” value (rats [5]; short-term toxicity studies, higher doses)?
Answer: The value was “motor incoordination of the hind legs and inhibition of grooming”.

Question: And the mutagenicity [6]?
Answer: Its mutagenicity is “not mutagenic”.

Question: What does the source list for `COc1ccc2c(c1)[C@]13CCCC[C@@H]1[C@H](C2)N(C)CC3` [Dextromethorphan Hydrobromide]?
Answer: solubility ([7]; at 20° C.): about 1.5 weight percent; solubility ([7]; at 85° C.): about 25 wt. %

Question: For `COc1ccc2c(c1)[C@]13CCCC[C@@H]1[C@H](C2)N(C)CC3` [Dextromethorphan hydrochloride], which solubility in water [8] is on record?
Answer: Its solubility in water is “highly soluble”.

Question: With `[Br-].[Na+]` [sodium bromide] as the compound, how does the thyroxine concentrations (thyroid gland) read?
Answer: The thyroxine concentrations was “significantly decreased”.

Question: And the “neurophysiological data (EEG and visual evoked response)” value (healthy volunteers; 9 mg Br/kg/day, within normal limits)?
Answer: Its value is “shifts in the power of various spectral bands and a shift in mean frequency”.

Question: And the “medical history, physical examination, haematology, clinical chemistry and urine analyses” value (healthy volunteers; 4 or 9 mg Br/kg/day, start versus end of study)?
Answer: Its value is “Except for incidental nausea, no changes were observed”.

Question: What about the “serum free thyroxine, thyroxine-binding globulin, cortisol, oestradiol, progesterone, testosterone, thyrotropin, prolactin, LH, FSH” value (healthy volunteers; 4 or 9 mg Br/kg/day) of the same compound?
Answer: Its value is “No changes were observed”.

Question: And the “mean plasma bromide concentration at the end of treatment” value (healthy volunteers; females, 4 mg Br/kg/day oral, three full cycles)?
Answer: Its value is 3.05 mmol/L.

Question: What about the “mean plasma bromide concentration at the end of treatment” value (healthy volunteers; females, 9 mg Br/kg/day oral, three full cycles) of the same compound?
Answer: The value was 4.93 mmol/L.

Question: And the “serum thyroxine and triiodothyronine at the end of the study compared to pre-administration values” (healthy volunteers; females, 9 mg Br/kg/day, all concentrations within normal limits)?
Answer: Its value is “significant increase”.

Question: And the “mean plasma bromide concentration at the end of treatment” value (healthy volunteers; males, 4 mg Br/kg/day oral, 12 weeks)?
Answer: Its value is 2.14 millimoles/liter.

Question: What about the “mean plasma bromide concentration at the end of treatment” value (healthy volunteers; males, 9 mg Br/kg/day oral, 12 weeks) of the same compound?
Answer: Its value is 4.30 millimoles/liter.

Question: And the effects on reproduction (rats [9]; 1200 ppm)?
Answer: The effects on reproduction was “no effects on reproduction were observed”.

Question: And the “fertility and viability of the offspring” value (rats [9]; 4800 ppm)?
Answer: The value was “reduced”.

Question: What about the fertility (rats [9]; 19200 ppm sodium bromide, reversible) of the same compound?
Answer: Its fertility is “complete infertility”.

Question: What about the “No Observable Adverse Effect Level” value (rats [5]; expressed as sodium bromide) of the same compound?
Answer: The value was 300 ppm.

Question: What about the “levels of thyroxine, growth hormone, testosterone and corticosterone” value (rats [5]; special studies) of the same compound?
Answer: Its value is “decreased levels”.

Question: What about the “thyroid-stimulating hormone (TSH) and insulin” value (rats [5]; special studies) of the same compound?
Answer: Its value is “increased”.
